Results from paper PMC7473865, “Repertoire-scale determination of class II MHC peptide binding via yeast display improves antigen prediction” (Nature Communications, 2020).
Ends that are not written are not given here. Peptide text beside a SMILES is read from it.

target: T1, recombinant HLA-DR401 (HLA-DRA1*01:01, HLA-DRB1*04:01) (Homo sapiens, UniProt P01903+P01911, A100K/A169T/F76Y/I96L/K127E/L162R/M171V/N62H/P40V/Q125Y/R42H/S133A/S149N/S66Y/V115G/V209L/W38E); assay: biochemical; assay type: binding; details: estimated from two-point fluorescence polarization competition assay binding plots, HLA-DR401, N = 3 technical replicates per condition; read-out: IC50 (estimated)
T1 construct: poly-histidine (C); made in house; host or cells: High Five (Hi5) insect cells, baculovirus (pAcGP67a)

Question: AAYSVEPCYRMWEEG was tested. Which IC50 did it give?
Answer: 37 nM

Question: With AAVNDQLTVNSWEEG as the molecule, how does the IC50 read?
Answer: 4500 nM

same assay, conditions: fluorescence polarization competition; […]; competitor 20 µM to 1.28 nM in five-fold dilutions; n = 3 replicates; read-out: Measured IC50

Question: YWKQWLSLRNPILVF was tested. Which IC50 did it give?
Answer: 2510 nM

same assay, conditions: fluorescence polarization peptide competition, HLA-DR401; sheet Fig7; read-out: Measured IC50

Question: For MKRRPVWTDINPKAVTNDEL, which IC50 is on record?
Answer: 21 nM

Question: How did the IC50 turn out when PIPVIFHRIATELRKTNDIN was run?
Answer: 698 nM

Question: How did the IC50 turn out when AAGFPGEQGPKGEPG was run?
Answer: > 50000 nM

Question: With RKDLIVMLMDTDVNKQDKQK as the molecule, how does the IC50 read?
Answer: 3170 nM

Question: YVGDMLAWLHQSTASEKEHL was tested. Which IC50 did it give?
Answer: 406 nM

Question: For `CC(C)C[C@H](NC(=O)[C@H](CCC(=O)O)NC(=O)[C@H](CC(N)=O)NC(=O)[C@H](CC(C)C)NC(=O)[C@H](CCC(N)=O)NC(=O)[C@@H](NC(=O)[C@H](CO)NC(=O)[C@H](CO)NC(=O)[C@H](CS)NC(=O)[C@H](CO)NC(=O)[C@H](CC(C)C)NC(=O)[C@H](CCCNC(=N)N)NC(=O)[C@H](Cc1ccccc1)NC(=O)[C@H](CC(C)C)NC(=O)[C@H](CCC(N)=O)NC(=O)[C@@H]1CCCN1C(=O)[C@H](CC(C)C)NC(=O)[C@H](CC(=O)O)NC(=O)[C@H](CS)NC(=O)[C@@H](N)Cc1ccc(O)cc1)[C@@H](C)O)C(=O)O` (H-YCDLPQLFRLSCSSTQLNEL-OH), which IC50 is on record?
Answer: 39.3 nM

Question: `CC[C@H](C)[C@H](NC(=O)[C@H](CCCCN)NC(=O)[C@H](CO)NC(=O)[C@@H](NC(=O)CNC(=O)[C@H](CC(N)=O)NC(=O)[C@@H](NC(=O)[C@H](CCCNC(=N)N)NC(=O)[C@@H](NC(=O)[C@H](Cc1ccc(O)cc1)NC(=O)[C@H](CC(C)C)NC(=O)[C@H](Cc1ccccc1)NC(=O)[C@@H](N)CCSC)C(C)C)[C@@H](C)O)[C@@H](C)O)C(=O)N[C@@H](CCCCN)C(=O)N[C@@H](CCSC)C(=O)N[C@@H](CCCCN)C(=O)N[C@@H](Cc1c[nH]c2ccccc12)C(=O)NCC(=O)N[C@@H](CCSC)C(=O)N[C@@H](CCC(=O)O)C(=O)O` was tested. Which IC50 did it give?
Answer: 6100 nM

Question: Which IC50 does the source give for `CC[C@H](C)[C@H](NC(=O)CNC(=O)[C@@H](NC(=O)[C@H](CCSC)NC(=O)CNC(=O)[C@H](CCSC)NC(=O)[C@@H](NC(=O)[C@H](CC(N)=O)NC(=O)[C@H](CC(=O)O)NC(=O)[C@@H](NC(=O)[C@@H]1CCCN1C(=O)[C@H](CCC(=O)O)NC(=O)[C@@H](NC(=O)CNC(=O)[C@H](Cc1c[nH]c2ccccc12)NC(=O)[C@H](CC(N)=O)NC(=O)[C@H](CCC(N)=O)NC(=O)[C@H](Cc1ccccc1)NC(=O)[C@@H](N)CC(C)C)C(C)C)[C@@H](C)CC)C(C)C)[C@@H](C)CC)C(=O)N[C@@H](CC(C)C)C(=O)O` here?
Answer: 2520 nM

Question: For `CC[C@H](C)[C@H](NC(=O)[C@H](C)NC(=O)[C@H](CC(=O)O)NC(=O)[C@H](Cc1ccc(O)cc1)NC(=O)[C@H](CC(C)C)NC(=O)[C@@H]1CCCN1C(=O)[C@@H](NC(=O)CNC(=O)[C@@H](N)CCC(=O)O)[C@@H](C)CC)C(=O)N[C@@H](CCCCN)C(=O)N[C@@H](CS)C(=O)N[C@@H](CCSC)C(=O)N[C@@H](CCCNC(=N)N)C(=O)N[C@H](C(=O)N[C@@H](Cc1ccccc1)C(=O)N[C@@H](Cc1ccccc1)C(=O)NCC(=O)N[C@@H](Cc1c[nH]c2ccccc12)C(=O)N[C@@H](CCCCN)C(=O)N[C@@H](CCC(=O)O)C(=O)O)[C@@H](C)O`, which IC50 is on record?
Answer: 61.4 nM

Question: LLPVKQSVVPLAKGTLITHC was tested. Which IC50 did it give?
Answer: 307 nM

Question: WRAPSYILSPELTQRLFSAA was tested. Which IC50 did it give?
Answer: 248 nM

Question: Which IC50 does the source give for EVKYCTFSKDRSKPIPGMTL here?
Answer: > 50000 nM

Question: How did the IC50 turn out when FVGNIAEDLCLDITKLSARG was run?
Answer: 86 nM

Question: For ESSISDKNYWKTVSNAFSVI, which IC50 is on record?
Answer: 24.7 nM

Question: Which IC50 does the source give for YSIEVLLVLDDSVVRFHGKE here?
Answer: > 50000 nM

Question: VYGWATLVSERSKNGMQRIL was tested. Which IC50 did it give?
Answer: 245 nM

Question: For ASDSSYRNECPMAEKEDTQM, which IC50 is on record?
Answer: 47.4 nM

Question: How did the IC50 turn out when VYGWATLVSERSNNGMQRIL was run?
Answer: 94 nM

Question: For PIPVIFHRIATELSKTNDIN, which IC50 is on record?
Answer: 42.1 nM

same assay, conditions: read-out: Measured IC50

Question: For AIGFKGEQGPKGGVG, which IC50 is on record?
Answer: 23300 nM

Question: With AAGFPGEQGPKGEPG as the molecule, how does the IC50 read?
Answer: > 50000 nM

Question: How did the IC50 turn out when AAFFGWEWGPDGEPG was run?
Answer: 5670 nM

Question: For `CSCC[C@H](NC(=O)[C@H](Cc1ccc(O)cc1)NC(=O)CNC(=O)[C@@H](N)CCCCN)C(=O)N[C@@H](Cc1ccccc1)C(=O)N[C@@H](CCC(=O)O)C(=O)N[C@@H](CO)C(=O)N[C@@H](CCCCN)C(=O)N[C@@H](CO)C(=O)N[C@@H](CCSC)C(=O)N[C@@H](CCCCN)C(=O)N[C@@H](CC(C)C)C(=O)N[C@@H](CCCNC(=N)N)C(=O)N[C@H](C(=O)N[C@@H](CCC(N)=O)C(=O)O)[C@@H](C)O`, which IC50 is on record?
Answer: 38700 nM

Question: With EVKYCTFSKDRSKPIPGMTL as the molecule, how does the IC50 read?
Answer: > 50000 nM

Question: For `CSCC[C@H](NC(=O)[C@H](CO)NC(=O)[C@@H](NC(=O)[C@H](Cc1ccccc1)NC(=O)[C@H](CC(N)=O)NC(=O)[C@@H](NC(=O)[C@@H](N)C(C)C)C(C)C)C(C)C)C(=O)N[C@@H](CCC(=O)O)C(=O)N[C@@H](Cc1ccccc1)C(=O)N[C@@H](CO)C(=O)N[C@@H](CC(C)C)C(=O)N[C@H](C(=O)N[C@@H](CC(=O)O)C(=O)N1CCC[C@H]1C(=O)N[C@@H](CCCNC(=N)N)C(=O)O)[C@@H](C)O`, which IC50 is on record?
Answer: 7970 nM

Question: How did the IC50 turn out when `CSCC[C@H](NC(=O)[C@H](CCCNC(=N)N)NC(=O)[C@@H](N)CO)C(=O)N[C@@H](CCC(N)=O)C(=O)N[C@@H](Cc1ccccc1)C(=O)N[C@@H](CO)C(=O)N[C@@H](CO)C(=O)N[C@@H](Cc1ccccc1)C(=O)N[C@H](C(=O)N[C@H](C(=O)N[C@@H](CC(N)=O)C(=O)N[C@H](C(=O)N[C@@H](CCCNC(=N)N)C(=O)NCC(=O)N[C@@H](CO)C(=O)O)C(C)C)C(C)C)[C@@H](C)O` was run?
Answer: 3380 nM

Question: How did the IC50 turn out when YSIEVLLVLDDSVVRFHGKE was run?
Answer: > 50000 nM

Question: AAGFKGEQGPKGGPG was tested. Which IC50 did it give?
Answer: 12100 nM

Question: With AAGFKGEQGPKGEPG as the molecule, how does the IC50 read?
Answer: 2910 nM
